In one assay the test system is bovine VSM cells. Description: PDGF-BB-stimulated DNA synthesis in bovine VSM cells. Format: cell-based. To be noted: bovine VSM cell line, various concentrations. The text has this: (§1) Cell culture, DNA synthesis, and proliferation assays: Cultures of both A10 and A7r5 rat aortic VSM cells were obtained from American Type Culture Collection (Rockville Md.). Bovine aortic smooth muscle cells were supplied by Martha O'Donnell (O'Donnell and Owen, 1986 Proc Natl. Acad. Sci.US.A., 83, p. 6132-6136). All of the cell lines were maintained as described (Weiss et al., 1998 Am. J. Physiol., 274, p. C1521-C1529) and were used between passages 15 and 25. The cells were growth-arrested by placing them in serum-free quiescence medium, exposed to growth factors as indicated, and [^3H]thymidine incorporation assessed as previously described (Weiss and Nuccitelli, 1992a J. Biol. Chem., 267, p. 5608-5613). Cell proliferation was assessed by counting of adherent cells on 4 representative fields under 100× magnification in each of 3 wells per experimental condition.
(§2) Antisense techniques were employed to examine the dependence of G1-phase progression on p21^Waf1/Cip1 in the VSM cell lines (Crooke, 1993 Antisense research and applications. Boca Raton, CRC.). […] DNA synthesis was assessed by [^3H]-thymidine incorporation and is expressed as mean ± s.e.m. of three wells per data point. […] After 18 hours of PDGF incubation, the cells were counted by examining representative fields at 100× magnification. The average number of cells in 4 random fields in each well was determined.

Another assay relates to A10 VSM cells. Description: Cell proliferation by counting adherent cells. Format: cell-based, rat. The conditions noted are these: after 18 hours of PDGF incubation.
Description: as §1, §2

Another assay has as its system cyclin D1/cdk 4. Description: Cyclin D1 immunoprecipitation / cdk 4 immunoblot in A10 VSM cells. The conditions noted are these: PDGF-BB 30 ng/ml, all times. Format: cell-based, rat. The procedure:
(§3) Cells were transfected with p21^Waf1/Cip1 antisense (SEQ. ID NO.:1) or sense oligodeoxynucleotide (SEQ. ID NO.:2), allowed to grow overnight in serum-free media. After overnight incubation in serum-free medium, the cells were stimulated with PDGF-BB (30 ng/ml) for the times indicated. The cells were subsequently immunoprecipitated with either cyclin D1 or cyclin E and immunoblotted with cdk 4 or cdk 2, respectively.
A general note: Immunoblotting shows a protein as a band on a membrane.

For a further assay, the system named is cyclin E/cdk 2. The experiment in a line: Cyclin E immunoprecipitation / cdk 2 immunoblot in A10 VSM cells. Format: cell-based, rat. The conditions noted are these: PDGF-BB 30 ng/ml. The procedure:
as §3

A further assay relates to α-actin. The experiment in a line: alpha-actin level by Western blot in A431 cells. Format: cell-based, human. The conditions noted are these: 200 nM oligodeoxynucleotide. The procedure:
Western blots: Cells were grown to confluence in 6 cm culture dishes and serum deprived. After transfection and or treatment with appropriate agonist, the cells were washed with phosphate-buffered saline and lysed in lysis buffer and the supernatant was Western blotted as described (Weiss and Nuccitelli, 1992 J. Biol. Chem., 267, p. 5608-5613).
PMA is a potent inducer of p21^Waf1/Cip1 in a variety of different cell lines (Huang et al., 1995 Proc. Natl. Acad. Sci. US.A., 92, p. 4793-4797; Michieli et al., 1994 Cancer Res., 54, p. 3391-3395) and was employed to examine p21^Waf1/Cip1 levels after antisense transfection and confirm efficacy of translation to attenuate p21^Waf1/Cip1 levels. A431 cells were transfected with 200 nM antisense p21^Waf1/Cip1 (SEQ. ID NO.:1) or sense p21^Waf1/Cip1 oligodeoxynucleotide (SEQ. ID NO.:2). After overnight incubation in serum-free medium, the cells were stimulated with PMA (100 ng/ml) for the times indicated, lysed, and the lysates were Western blotted with p21^Waf1/Cip1 or α-actin antibody.

For a further assay, the system named is cyclinD/cdk4. The experiment in a line: Cyclin D1 immunoprecipitation / cdk4 immunoblot in A431 cells. Format: cell-based, human. The conditions noted are these: PDGF-BB 30 ng/ml. An excerpt: (§4) Cyclin/cdk interactions occur after growth factor stimulation and serve to integrate such responses with the CKIs and transmit them to the Rb/E2F systems, which leads to mitogenic signal transmission. The cyclin D1/cdk 4 interaction occurs early after growth factor stimulation (reviewed in (Arellano and Moreno, 1997 Int. J. Biochem. Cell Biol., 29, p. 559-573)), while the cyclinE/cdk2 interaction occurs late in G1 and is thought to have a role in triggering the actual onset of DNA replication after the cells have passed the restriction point (reviewed in (Sherr and Roberts, 1995: Genes Dev., 9, p. 1149-1163)). A431 cells were transfected with p21^Waf1/Cip1 antisense (SEQ. ID NO.:1) or sense (SEQ. ID NO.:2) oligodeoxynucleotide, allowed to grow overnight in serum-free media, and then stimulated for various times with PDGF-BB. The cells were subsequently immunoprecipitated with either cyclinD1 or cyclinE and immunoblotted with cdk4 or cdk2, respectively. A lysate sample, showing the mobility of the immunoprecipitated cdks, confirmed the identity of the cdks. A431 cells were transfected with antisense (SEQ. ID NO.:1) or sense p21^Waf1/Cip1 (SEQ. ID NO.:2) oligonucleotides. […]

Another assay relates to cyclinE/cdk2. Description: Cyclin E immunoprecipitation / cdk2 immunoblot in A431 cells. Format: cell-based, human. The conditions noted are these: 10 min to 6 hours of PDGF exposure.
Description: as §4

The values that follow come from US20050043262A1, “Novel specific inhibitor of the cyclin kinase inhibitor p21Waf1/Cip1 and methods of using the inhibitor” (priority 2000, published 2005).

For 5′-GACATCACCAGGATCGGACAT-3′, the “PDGF-stimulated DNA synthesis” value with bovine VSM cells is “a similar effect”. In addition, the “cell number / cell proliferation” value with A10 VSM cells is on record as “parallel the alterations in DNA synthesis”; in the assay with A10 VSM cells (listed as antisense p21^Waf1/Cip1 oligodeoxynucleotide), “inhibited”. For the same substance, the “association of cyclin D1 and cdk 4” value in the assay on cyclin D1/cdk 4 is “marked decrease”. The “cyclin E/cdk 2 interaction” value with cyclin E/cdk 2 is “no change”. In addition, the “levels of α-actin” value in the assay with α-actin is reported as “not altered”. The cyclinD/cdk4 association result with cyclinD/cdk4 is reported as “no change”. For the same substance, the cyclinE/cdk2 association entry in the assay with cyclinE/cdk2 was “no effect”.
